From patent US10221179B2, “Substituted pyrazoloquinazolinones and pyrroloquinazolinones as allosteric modulators of group II metabotropic glutamate receptors” (DOMAIN THERAPEUTICS, priority 2014, dated 2019) come the findings set out here.

Some results are limits rather than exact numbers.

One data set concerns the target T1, human mGluR2 (hmGluR2) (Homo sapiens, UniProt Q14416).
T1 construct: expressed in transfected cells; host or cells: HEK-293 cells, transient co-transfection by electroporation
As to the kind of experiment: Ca++ functional assay, human mGluR2 transiently over-expressed in HEK-293 cells (agonist and negative allosteric modulator modes). The settings on record: glutamate at EC80, intracellular calcium (Fluo4AM), read-out: hmGluR2 negative allosteric modulator activity IC50. The data set is classed as cell-based. How it is done:
Example 127: Human mGluR2 and mGluR3 Evaluation Using Ca^++ Functional Assay
Examples of the present invention were tested successively for their agonist and negative allosteric modulator activities on human mGluR2 (hmGluR2) and mGluR3 (hmGluR3) transiently over-expressed in HEK-293 cells.
Cell Culture and Transfection
HEK-293 cells are maintained in Modified Eagle's Medium supplemented with 10% Foetal Calf Serum, 1% Penicillin/Streptomycin and 1% non-essential amino acids at 37° C./5% CO2.
Cells are co-transfected by electroporation with four DNA plasmids encoding hmGluR2 or hmGluR3, a chimeric G protein allowing redirection of the activation signal to intracellular calcium pathway (Brabet I et al., Neuropharmacology 37(8), 1043-51, 1998), and two glutamate transporters minimizing receptor desensitization by endogenous glutamate. After transfection, cells are cultured for 24 h at 37° C./5% CO2.
Calcium Assay IC50 Determination
Receptor activity is detected by changes in intracellular calcium measured using the fluorescent Ca^2+ sensitive dye, Fluo4AM (Molecular Probes).
On the day of the assay, culture medium is aspirated and replaced during 3 hours by medium without serum supplemented with 1% Glutamax, 1% Penicillin/Streptomycin and 1% non-essential amino acids. Then, cells are washed with freshly prepared buffer B (HBSS 1×(PAA), Hepes 20 mM, MgSO4-7H2O 1 mM, Na2CO3 3.3 mM, CaCl2-2H2O 1.3 mM, 0.1% BSA, Probenecid 2.5 mM) and loaded at 37° C. in 5% CO2 for 1.5 hours with buffer B containing 1 μM Fluo4AM, 0.1 mg/mL Pluronic Acid, 7 μg/mL Glutamate Pyruvate Transaminase and 2 mM sodium pyruvate. Afterwards cells are washed twice with buffer B. Then cells are detached using StemPro Accutase (Fischer Scientific), resuspended in buffer B and seeded in 384 well plate at a density of 30,000 cells per well. Addition of compounds and intracellular Ca^2+ measurements (excitation 485 nm, emission 525 nm) are performed by the fluorescence microplate reader FLIPRTetra (Molecular Devices).
Agonist and negative allosteric modulator activities of compounds are consecutively evaluated on the same cell plate. […] Then, cells are stimulated by an EC80 glutamate concentration and fluorescence is recorded for additional 3 minutes. EC80 glutamate concentration is the concentration giving 80% of the maximal glutamate response. Agonist or negative allosteric modulator activity(ies) are evaluated in comparison to basal signals evoked by buffer B or EC80 glutamate alone, respectively.
For IC50 determination, a dose-response test is performed using 20 concentrations (ranging over 6 logs) of each compound. Dose-response curves are fitted using the sigmoidal dose-response (variable slope) analysis in GraphPad Prism program (Graph Pad Inc) and IC50 of negative allosteric modulator activity is calculated. Dose-response experiments are performed in duplicate, two times independently.

T1 sequence (Q14416 19-872): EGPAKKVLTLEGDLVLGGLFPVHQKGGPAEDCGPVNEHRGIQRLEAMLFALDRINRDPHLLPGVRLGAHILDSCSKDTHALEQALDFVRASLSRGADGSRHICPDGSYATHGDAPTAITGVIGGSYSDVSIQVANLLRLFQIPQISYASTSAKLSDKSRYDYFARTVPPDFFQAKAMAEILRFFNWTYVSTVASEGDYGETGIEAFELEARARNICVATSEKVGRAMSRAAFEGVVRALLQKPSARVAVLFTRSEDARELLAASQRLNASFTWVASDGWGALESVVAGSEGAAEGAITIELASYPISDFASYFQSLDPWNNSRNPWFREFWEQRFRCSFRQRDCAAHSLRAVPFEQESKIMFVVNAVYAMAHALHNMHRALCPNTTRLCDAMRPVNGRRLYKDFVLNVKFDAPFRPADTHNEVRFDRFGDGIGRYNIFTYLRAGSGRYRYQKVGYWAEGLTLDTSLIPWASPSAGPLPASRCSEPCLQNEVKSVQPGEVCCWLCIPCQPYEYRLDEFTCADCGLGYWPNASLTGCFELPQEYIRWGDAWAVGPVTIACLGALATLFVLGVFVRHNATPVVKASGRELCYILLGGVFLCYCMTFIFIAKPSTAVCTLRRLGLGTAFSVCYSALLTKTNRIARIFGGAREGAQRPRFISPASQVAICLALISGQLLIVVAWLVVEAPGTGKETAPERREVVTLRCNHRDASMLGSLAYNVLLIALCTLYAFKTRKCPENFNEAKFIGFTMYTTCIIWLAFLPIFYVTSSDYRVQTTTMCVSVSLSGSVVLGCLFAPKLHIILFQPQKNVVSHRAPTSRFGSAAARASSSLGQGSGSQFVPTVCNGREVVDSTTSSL

As for `Cn1c(=O)c2ccc(N3CCC(O)C3)cc2n2nc(-c3ccnc(C(F)(F)F)c3)cc12` (stereo not shown) [Example 70, 8-(3-Hydroxy-pyrrolidin-1-yl)-4-methyl-2-(2-trifluoromethyl-pyridin-4-yl)-4H-pyrazolo[1,5-a]quinazolin-5-one], the melting point was > 250 °C. Further, the IC50 on human mGluR2 (hmGluR2) is < 1000 nM.

As to `Cn1c(=O)c2ccc(C(N)=O)cc2n2nc(-c3ccnc(C(F)(F)F)c3)cc12` [Example 77, 4-Methyl-5-oxo-2-(2-trifluoromethyl-pyridin-4-yl)-4,5-dihydro-pyrazolo[1,5-a]quinazoline-8-carboxylic Acid Amide], the melting point was > 250 °C. Also, the IC50 at human mGluR2 (hmGluR2) was < 1000 nM.

`CNC(=O)c1ccc2c(=O)n(C)c3cc(-c4ccnc(C(F)(F)F)c4)nn3c2c1` [Example 78, 4-Methyl-5-oxo-2-(2-trifluoromethyl-pyridin-4-yl)-4,5-dihydro-pyrazolo[1,5-a]quinazoline-8-carboxylic Acid Methylamide]: the melting point was > 250 °C. Further, the IC50 at human mGluR2 (hmGluR2) is < 1000 nM.

The compound `CCN(CC)C(=O)c1ccc2c(=O)n(C)c3cc(-c4ccnc(C(F)(F)F)c4)nn3c2c1` [Example 80, 4-Methyl-5-oxo-2-(2-trifluoromethyl-pyridin-4-yl)-4,5-dihydro-pyrazolo[1,5-a]quinazoline-8-carboxylic Acid Diethylamide] returned a melting point of 240 to 245 °C. Also, at human mGluR2 (hmGluR2), the IC50 was < 1000 nM.

Take `Cn1c(=O)c2ccc(C(=O)N3CCOCC3)cc2n2nc(-c3ccnc(C(F)(F)F)c3)cc12` [Example 81, 4-Methyl-8-(morpholine-4-carbonyl)-2-(2-trifluoromethyl-pyridin-4-yl)-4H-pyrazolo[1,5-a]quinazolin-5-one]: the melting point was > 250 °C. Besides, the IC50 at human mGluR2 (hmGluR2) was < 1000 nM.

Consider `Cn1c(=O)c2ccc(C(=O)N3CCCC3)cc2n2nc(-c3ccnc(C(F)(F)F)c3)cc12` [Example 82, 4-Methyl-8-(pyrrolidine-1-carbonyl)-2-(2-trifluoromethyl-pyridin-4-yl)-4H-pyrazolo[1,5-a]quinazolin-5-one], for which the melting point is > 250 °C. Besides, on human mGluR2 (hmGluR2), the IC50 was < 1000 nM.

For the compound `Cn1c(=O)c2c(F)cccc2n2nc(-c3ccnc(C(F)(F)F)c3)cc12` [Example 85, 6-Fluoro-4-methyl-2-(2-trifluoromethyl-pyridin-4-yl)-4H-pyrazolo[1,5-a]quinazolin-5-one], the melting point was > 250 °C. The IC50 on human mGluR2 (hmGluR2) is < 1000 nM.

As to `COc1cc2c(=O)n(C)c3cc(-c4ccnc(C(F)(F)F)c4)nn3c2cc1OC` [Example 87, 7,8-Dimethoxy-4-methyl-2-(2-trifluoromethyl-pyridin-4-yl)-4H-pyrazolo[1,5-a]quinazolin-5-one], the melting point was > 250 °C. On human mGluR2 (hmGluR2), the IC50 is < 1000 nM.

In the case of `Cn1c(=O)c2cc(F)c(F)cc2n2nc(-c3ccnc(C(F)(F)F)c3)cc12` [Example 88, 7,8-Difluoro-4-methyl-2-(2-trifluoromethyl-pyridin-4-yl)-4H-pyrazolo[1,5-a]quinazolin-5-one], the melting point is > 206 °C. Also, the IC50 on human mGluR2 (hmGluR2) was < 1000 nM.

Regarding `COc1cc2c(=O)n(C)c3cc(-c4ccnc(C(F)(F)F)c4)nn3c2cc1F` [Example 89, 8-Fluoro-7-methoxy-4-methyl-2-(2-trifluoromethyl-pyridin-4-yl)-4H-pyrazolo[1,5-a]quinazolin-5-one], the melting point fell in the range of 220 to 230 °C. Moreover, at human mGluR2 (hmGluR2), the IC50 is < 1000 nM.

In the case of `COc1cc2c(=O)n(C)c3cc(-c4ccnc(C(F)(F)F)c4)nn3c2cc1N1CCC(O)CC1` [Example 90, 8-(4-Hydroxy-piperidin-1-yl)-7-methoxy-4-methyl-2-(2-trifluoromethyl-pyridin-4-yl)-4H-pyrazolo[1,5-a]quinazolin-5-one], the melting point was > 250 °C. Moreover, at human mGluR2 (hmGluR2), the IC50 was < 1000 nM.

For `CN(C)c1cc2c(cc1F)c(=O)n(C)c1cc(-c3ccnc(C(F)(F)F)c3)nn21` [Example 91, 8-Dimethylamino-7-fluoro-4-methyl-2-(2-trifluoromethyl-pyridin-4-yl)-4H-pyrazolo[1,5-a]quinazolin-5-one], the melting point was > 250 °C. On human mGluR2 (hmGluR2), the IC50 is < 1000 nM.

`COc1ccc2c(c1)c(=O)n(C)c1cc(-c3ccnc(OCC(F)(F)F)c3)nn21` [Example 102, 7-Methoxy-4-methyl-2-[2-(2,2,2-trifluoro-ethoxy)-pyridin-4-yl]-4H-pyrazolo[1,5-a]quinazolin-5-one] yielded a melting point of 172 to 180 °C. Further, the IC50 on human mGluR2 (hmGluR2) is < 1000 nM.

`Cn1c(=O)c2ccc(C(=O)N3CC(O)C3)cc2n2nc(-c3ccnc(C(F)(F)F)c3)cc12` [Example 110, 8-(3-Hydroxy-azetidine-1-carbonyl)-4-methyl-2-(2-trifluoromethyl-pyridin-4-yl)-4H-pyrazolo[1,5-a]quinazolin-5-one]: the melting point was > 250 °C. Moreover, the IC50 at human mGluR2 (hmGluR2) was < 1000 nM.

Consider `Cn1c(=O)c2ccc(N3CCC(O)CC3)cc2n2nc(-c3ccnc(C4CC4)c3)cc12` [Example 113, 2-(2-Cyclopropyl-pyridin-4-yl)-8-(4-hydroxy-piperidin-1-yl)-4-methyl-4H-pyrazolo[1,5-a]quinazolin-5-one], for which the melting point was 221 to 233 °C. Further, at human mGluR2 (hmGluR2), the IC50 is < 1000 nM.

On to `Cn1c(=O)c2ccc(F)cc2n2nc(-c3ccnc(C(F)F)c3)cc12` [Example 114, 2-(2-Difluoromethyl-pyridin-4-yl)-8-fluoro-4-methyl-4H-pyrazolo[1,5-a]quinazolin-5-one], for which the melting point was 220 to 226 °C. Besides, the IC50 on human mGluR2 (hmGluR2) was < 1000 nM.

For `Cn1c(=O)c2ccc(N3CCC(O)CC3)cc2n2nc(-c3ccnc(C(F)F)c3)cc12` [Example 115, 2-(2-Difluoromethyl-pyridin-4-yl)-8-(4-hydroxy-piperidin-1-yl)-4-methyl-4H-pyrazolo[1,5-a]quinazolin-5-one], the melting point was > 250 °C. The IC50 on human mGluR2 (hmGluR2) is < 1000 nM.

As to `Cn1c(=O)c2ccc(F)cc2n2nc(-c3ccnc(C4CCC4)c3)cc12` [Example 116, 2-(2-Cyclobutyl-pyridin-4-yl)-8-fluoro-4-methyl-4H-pyrazolo[1,5-a]quinazolin-5-one], the melting point fell in the range of 210 to 220 °C. For the same compound, the IC50 on human mGluR2 (hmGluR2) was < 1000 nM.

For the compound `Cn1c(=O)c2cc(F)c(N3CC(O)C3)cc2n2nc(-c3ccnc(C(F)(F)F)c3)cc12` [Example 119, 7-Fluoro-8-(3-hydroxy-azetidin-1-yl)-4-methyl-2-(2-trifluoromethyl-pyridin-4-yl)-4H-pyrazolo[1,5-a]quinazolin-5-one], the melting point is > 250 °C. For the same compound, the IC50 at human mGluR2 (hmGluR2) is < 1000 nM.

For the compound `Cn1c(=O)c2cc(F)c(OC3COC3)cc2n2nc(-c3ccnc(C(F)(F)F)c3)cc12` [Example 120, 7-Fluoro-4-methyl-8-(oxetan-3-yloxy)-2-(2-trifluoromethyl-pyridin-4-yl)-4H-pyrazolo[1,5-a]quinazolin-5-one], the melting point is > 250 °C. Besides, the IC50 on human mGluR2 (hmGluR2) is < 1000 nM.

With `Cn1c(=O)c2cc(F)c(NCCC#N)cc2n2nc(-c3ccnc(C(F)(F)F)c3)cc12` [Example 121, 3-[7-Fluoro-4-methyl-5-oxo-2-(2-trifluoromethyl-pyridin-4-yl)-4,5-dihydro-pyrazolo[1,5-a]quinazolin-8-ylamino]-propionitrile], the melting point was > 250 °C. Also, the IC50 at human mGluR2 (hmGluR2) was < 1000 nM.

As for `Cn1c(=O)c2cc(F)c(N3CCCC3CO)cc2n2nc(-c3ccnc(C(F)(F)F)c3)cc12` (stereo not shown) [Example 122, 7-Fluoro-8-(2-hydroxymethyl-pyrrolidin-1-yl)-4-methyl-2-(2-trifluoromethyl-pyridin-4-yl)-4H-pyrazolo[1,5-a]quinazolin-5-one], the melting point was > 250 °C. Also, at human mGluR2 (hmGluR2), the IC50 was < 1000 nM.

As for `CC1CN(c2ccc3c(=O)n(C)c4cc(-c5ccnc(C(F)(F)F)c5)nn4c3c2)CC(C)O1` (stereo not shown) [Example 125, 8-(2,6-Dimethyl-morpholin-4-yl)-4-methyl-2-(2-trifluoromethyl-pyridin-4-yl)-4H-pyrazolo[1,5-a]quinazolin-5-one], the melting point is > 250 °C. In addition, on human mGluR2 (hmGluR2), the IC50 is < 1000 nM.
